Measured values reported in publication PMC7126698 (Bioorganic & Medicinal Chemistry, 2008).

Tested on: mature 3CL protease
Format: biochemical, SARS coronavirus

## H-Thr-Ser-Ala-Val-Leu-Gln-Ser-Gly-Phe-Arg-Lys-NH2 [SO1]
  disappearance of SO1: completely disappeared within 1 h
